What all share (assay type): cell-based
Assay [1] has as its target HER2 (A775_G776insYVMA) expressing Ba/F3 stable cell line (Homo sapiens, UniProt P04626, DUP772-775, cells depend on it). In words: Cellular proliferation (Alamar Blue) assay, HER2 A775_G776insYVMA Ba/F3. The settings on record: 72 hr, read-out: YVMA IC50. How it is done: • 1. EGFR(D770_N771insSVD) expressing Ba/F3 stable cell line • 2. EGFR (A767_dupASV) expressing Ba/F3 stable cell line • 3. A431 cells • 4. EGFR (H773insNPH) expressing Ba/F3 stable cell line • 5. HER2 (A775_G776insYVMA) expressing Ba/F3 stable cell line Assay Procedure: • 1. Seed cells at 5000 for A431 and 15,000 cells for Ba/F3 in 100 μL/well in complete media (for A431: DMEM with […] and for Ba/F3 cells: RPMI with 10% FBS) in 96-well tissue culture plate. Leave outer wells without cells for background measurements. Incubate at 37 degree Celsius in […] humidified incubator for 16-18 hours. • 2. Add 0.025 ml of 5× concentration compound dilution or DMSO control. Final compound concentration range is 10-0.0005 μM prepared in 3-fold serial dilutions. Incubate for 72 hr at 37 degree Celsius in […] humidified incubator. • 3. Add 0.0125 ml Alamar Blue™ reagent to each well with multi-channel pipette and tap gently on each side of the plate to mix. Incubate for 3 hours at 37 degree Celsius in 5% CO2 humidified incubator. • 4. […] Data analysis was performed using XLfit 5.5.0.5.
(The colour change of resazurin is a common sign of viable cells or microbes.)

A further assay has as its system A431 cells. Description: Cellular proliferation (Alamar Blue) assay, A431. The settings on record: Homo sapiens, A-431; A431 cells, 72 hr, Alamar Blue; read-out: A431 IC50.
Assay [2] has as its target EGFR (A767_dupASV) expressing Ba/F3 stable cell line (Homo sapiens, UniProt P00533, DUP767-769, cells depend on it). Description: Cellular proliferation (Alamar Blue) assay, EGFR A767_dupASV Ba/F3. As to conditions: 72 hr, read-out: A767 IC50. The essentials: (§1)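 Ba/F3 stable lines (15,000 cells/well, RPMI + 10% FBS) seeded 16–18 h, then treated 72 h at 37 °C with compound, final 10–0.0005 μM in 3-fold dilutions. Viability read by Alamar Blue after 3 h incubation.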

Assay [3] addresses EGFR(D770_N771insSVD) expressing Ba/F3 stable cell line (Homo sapiens, UniProt P00533, DUP768-770, cells depend on it). In words: Cellular proliferation (Alamar Blue) assay, EGFR D770_N771insSVD Ba/F3. As to conditions: 72 hr, read-out: D770 IC50. The gist of the method: as §1

In patent publication US12686673B2 (Blueprint Medicines Corporation, priority 2020, dated 2026) one finds GI50 and IC50 data, which are given here for 11 compounds.

What is called IC50 is the concentration needed to halve the response being measured.

HER2 (A775_G776insYVMA) expressing Ba/F3 stable cell line, sequence (P04626 with tags, fused parts or gaps DUP772-775): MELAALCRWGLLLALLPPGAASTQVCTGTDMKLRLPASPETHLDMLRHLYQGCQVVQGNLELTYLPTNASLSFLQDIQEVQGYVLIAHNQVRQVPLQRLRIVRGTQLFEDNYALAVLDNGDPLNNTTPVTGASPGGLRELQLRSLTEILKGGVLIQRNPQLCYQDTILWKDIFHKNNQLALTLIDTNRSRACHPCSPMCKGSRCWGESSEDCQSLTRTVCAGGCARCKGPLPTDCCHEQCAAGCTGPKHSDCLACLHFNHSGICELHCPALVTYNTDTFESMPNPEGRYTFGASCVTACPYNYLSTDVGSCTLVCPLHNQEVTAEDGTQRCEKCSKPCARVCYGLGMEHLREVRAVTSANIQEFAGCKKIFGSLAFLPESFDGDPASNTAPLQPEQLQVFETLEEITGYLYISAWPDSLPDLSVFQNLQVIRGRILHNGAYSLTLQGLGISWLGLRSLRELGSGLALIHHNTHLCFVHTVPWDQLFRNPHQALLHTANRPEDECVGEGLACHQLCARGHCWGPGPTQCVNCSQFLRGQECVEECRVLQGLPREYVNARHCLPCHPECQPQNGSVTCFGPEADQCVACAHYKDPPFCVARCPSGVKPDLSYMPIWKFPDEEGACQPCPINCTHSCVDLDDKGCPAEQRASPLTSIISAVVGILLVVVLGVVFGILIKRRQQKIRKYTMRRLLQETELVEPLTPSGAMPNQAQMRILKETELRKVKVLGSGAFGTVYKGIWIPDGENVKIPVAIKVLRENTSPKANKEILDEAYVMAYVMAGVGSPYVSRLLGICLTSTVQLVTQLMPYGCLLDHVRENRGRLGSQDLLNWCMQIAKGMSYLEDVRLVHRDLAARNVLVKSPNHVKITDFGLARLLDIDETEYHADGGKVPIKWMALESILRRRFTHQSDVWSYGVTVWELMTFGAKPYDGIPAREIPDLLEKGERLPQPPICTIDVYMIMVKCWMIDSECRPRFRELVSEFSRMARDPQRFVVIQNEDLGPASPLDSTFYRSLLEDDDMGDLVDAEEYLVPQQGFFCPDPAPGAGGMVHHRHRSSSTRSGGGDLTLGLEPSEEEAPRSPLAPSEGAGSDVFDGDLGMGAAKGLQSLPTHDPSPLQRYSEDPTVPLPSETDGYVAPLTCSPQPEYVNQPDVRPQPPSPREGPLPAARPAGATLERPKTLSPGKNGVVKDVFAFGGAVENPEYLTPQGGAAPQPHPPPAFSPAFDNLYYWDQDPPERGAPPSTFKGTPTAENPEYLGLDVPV
EGFR(D770_N771insSVD) expressing Ba/F3 stable cell line, sequence (P00533 with tags, fused parts or gaps DUP768-770): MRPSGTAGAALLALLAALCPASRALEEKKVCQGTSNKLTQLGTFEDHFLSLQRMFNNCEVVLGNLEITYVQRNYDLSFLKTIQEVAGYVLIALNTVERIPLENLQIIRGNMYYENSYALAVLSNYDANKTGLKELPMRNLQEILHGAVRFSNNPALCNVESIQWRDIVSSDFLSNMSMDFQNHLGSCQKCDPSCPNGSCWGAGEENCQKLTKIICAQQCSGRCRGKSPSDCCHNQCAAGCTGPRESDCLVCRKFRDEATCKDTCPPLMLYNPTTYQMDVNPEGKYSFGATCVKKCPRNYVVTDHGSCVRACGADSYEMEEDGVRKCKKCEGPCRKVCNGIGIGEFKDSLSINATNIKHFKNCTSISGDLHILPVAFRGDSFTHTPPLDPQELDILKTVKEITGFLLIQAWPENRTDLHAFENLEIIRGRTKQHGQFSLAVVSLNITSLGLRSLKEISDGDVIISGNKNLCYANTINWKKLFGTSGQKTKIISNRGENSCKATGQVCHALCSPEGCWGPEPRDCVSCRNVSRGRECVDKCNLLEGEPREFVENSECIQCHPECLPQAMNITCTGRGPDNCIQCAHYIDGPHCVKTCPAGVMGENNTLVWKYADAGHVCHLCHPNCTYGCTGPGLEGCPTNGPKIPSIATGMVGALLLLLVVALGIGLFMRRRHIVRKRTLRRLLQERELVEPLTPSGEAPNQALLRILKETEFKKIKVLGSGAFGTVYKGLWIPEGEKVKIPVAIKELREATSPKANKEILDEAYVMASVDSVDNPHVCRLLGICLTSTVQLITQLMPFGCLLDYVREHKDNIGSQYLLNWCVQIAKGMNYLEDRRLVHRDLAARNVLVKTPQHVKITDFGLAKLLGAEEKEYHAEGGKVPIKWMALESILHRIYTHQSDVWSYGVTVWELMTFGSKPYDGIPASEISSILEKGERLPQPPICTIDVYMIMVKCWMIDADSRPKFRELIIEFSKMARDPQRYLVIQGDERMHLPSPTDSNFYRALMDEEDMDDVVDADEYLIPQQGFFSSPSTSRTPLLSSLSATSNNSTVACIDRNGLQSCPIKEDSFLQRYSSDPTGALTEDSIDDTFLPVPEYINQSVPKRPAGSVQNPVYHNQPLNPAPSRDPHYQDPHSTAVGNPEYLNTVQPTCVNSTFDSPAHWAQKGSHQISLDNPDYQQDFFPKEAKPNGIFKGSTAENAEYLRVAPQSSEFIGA
EGFR (A767_dupASV) expressing Ba/F3 stable cell line, sequence (P00533 with tags, fused parts or gaps DUP767-769): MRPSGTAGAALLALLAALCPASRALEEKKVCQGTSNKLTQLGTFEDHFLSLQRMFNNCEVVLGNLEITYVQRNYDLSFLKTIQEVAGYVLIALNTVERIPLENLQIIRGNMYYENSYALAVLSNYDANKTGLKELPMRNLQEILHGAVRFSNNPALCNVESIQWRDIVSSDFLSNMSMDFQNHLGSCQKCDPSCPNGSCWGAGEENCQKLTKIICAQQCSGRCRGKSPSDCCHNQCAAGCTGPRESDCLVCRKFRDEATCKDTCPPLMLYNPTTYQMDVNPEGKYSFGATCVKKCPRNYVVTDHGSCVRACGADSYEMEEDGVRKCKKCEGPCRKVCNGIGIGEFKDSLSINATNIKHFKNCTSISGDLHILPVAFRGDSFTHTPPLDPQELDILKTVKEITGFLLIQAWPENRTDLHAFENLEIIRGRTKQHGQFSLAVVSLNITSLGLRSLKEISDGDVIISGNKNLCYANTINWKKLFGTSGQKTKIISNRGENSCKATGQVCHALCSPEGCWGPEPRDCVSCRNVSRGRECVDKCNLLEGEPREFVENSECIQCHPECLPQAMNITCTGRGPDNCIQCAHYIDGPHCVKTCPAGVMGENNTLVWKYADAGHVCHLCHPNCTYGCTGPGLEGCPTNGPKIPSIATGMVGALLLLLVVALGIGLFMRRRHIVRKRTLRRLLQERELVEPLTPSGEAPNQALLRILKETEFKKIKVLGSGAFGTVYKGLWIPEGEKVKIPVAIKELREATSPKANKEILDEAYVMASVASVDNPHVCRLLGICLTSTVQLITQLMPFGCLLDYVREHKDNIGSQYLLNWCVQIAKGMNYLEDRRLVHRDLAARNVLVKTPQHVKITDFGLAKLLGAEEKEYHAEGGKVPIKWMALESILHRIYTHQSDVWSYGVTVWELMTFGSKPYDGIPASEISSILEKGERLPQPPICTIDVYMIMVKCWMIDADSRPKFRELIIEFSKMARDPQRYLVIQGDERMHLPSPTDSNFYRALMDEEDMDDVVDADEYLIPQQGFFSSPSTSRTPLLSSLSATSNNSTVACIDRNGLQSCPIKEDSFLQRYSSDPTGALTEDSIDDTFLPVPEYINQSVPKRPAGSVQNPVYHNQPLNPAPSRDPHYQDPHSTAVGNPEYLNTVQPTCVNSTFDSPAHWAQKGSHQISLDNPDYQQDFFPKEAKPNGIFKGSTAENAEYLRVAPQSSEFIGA

With `C=CC(=O)Nc1ccc(F)c(Nc2nc(Nc3cnn(C)c3)ncc2-c2ccccc2Cl)c1` [Compound 150, N-(3-((5-(2-chlorophenyl)-2-((1-methyl-1H-pyrazol-4-yl)amino)pyrimidin-4-yl)amino)-4-fluorophenyl)acrylamide 2,2,2-trifluoroacetate], the GI50 in assay [1] was determined as 1810 nM.

As to `C=CC(=O)Nc1ccc(F)c(Nc2nc(Nc3cnn(C)c3)ncc2C2CCOCC2)c1` [Compound 255, N-(4-fluoro-3-((2-((1-methyl-1H-pyrazol-4-yl)amino)-5-(tetrahydro-2H-pyran-4-yl)pyrimidin-4-yl)amino)phenyl)acrylamide], in assay [1], the GI50 is above 10000 nM.

On to `C=CC(=O)Nc1ccc(F)c(Nc2nc(Nc3cnn(C)c3)ncc2C2=CCOC2)c1` [Compound 261, N-(3-{[5-(2,5-dihydrofuran-3-yl)-2-[(1-methyl-1H-pyrazol-4-yl)amino]pyrimidin-4-yl]amino}-4-fluorophenyl) prop-2-enamide], for which the IC50 in the assay on A431 cells came to 195 nM. Besides, the GI50 in assay [1] amounted to 222 nM.

In the case of `C=CC(=O)Nc1ccc(F)c(Nc2nc(Nc3cnn(C)c3)ncc2-c2cccc3ncccc23)c1` [Compound 262, N-(4-fluoro-3-((2-((1-methyl-1H-pyrazol-4-yl)amino)-5-(quinolin-5-yl)pyrimidin-4-yl)amino)phenyl)acrylamide], the GI50 in assay [1] came to 4430 nM.

On to `C=CC(=O)Nc1ccc(F)c(Nc2nc(Nc3cn(C)nc3Cl)ncc2-c2ccccc2F)c1` [Compound 264, N-(3-((2-((3-chloro-1-methyl-1H-pyrazol-4-yl)amino)-5-(2-fluorophenyl)pyrimidin-4-yl)amino)-4-fluorophenyl)acrylamide], for which the IC50 with A431 cells was 145 nM. Moreover, in assay [1], the GI50 was determined as 465 nM.

With `C=CC(=O)Nc1ccc(F)c(Nc2nc(Nc3cnn(C)c3)ncc2C2CCOC2)c1` (centres unmarked) [Compound 266, N-{4-fluoro-3-([2-[(1-methyl-1H-pyrazol-4-yl)amino]-5-(oxolan-3-yl)pyrimidin-4-yl}amino)phenyl] prop-2-enamide], the half-maximal inhibitory concentration (IC50) in the assay with A431 cells was found to be 768 nM. The GI50 in assay [1] worked out at 1380 nM.

With `C=CC(=O)Nc1ccc(F)c(Nc2nc(Nc3cnn(C)c3)ncc2-c2ccccc2N(C)C)c1` [Compound 267, N-(3-((5-(2-(dimethylamino)phenyl)-2-((1-methyl-1H-pyrazol-4-yl)amino)pyrimidin-4-yl)amino)-4-fluorophenyl)acrylamide], in the assay with A431 cells, the IC50 is 5800 nM. Besides, the GI50 in assay [1] is above 10000 nM.

Take `C=CC(=O)Nc1ccc(F)c(Nc2nc(Nc3cnn(C)c3)ncc2-c2cccc3ccncc23)c1` [Compound 268, N-(4-fluoro-3-((5-(isoquinolin-8-yl)-2-((1-methyl-1H-pyrazol-4-yl)amino)pyrimidin-4-yl)amino)phenyl)acrylamide]: the IC50 in the assay on A431 cells was determined as 3440 nM. Besides, the GI50 in assay [1] was above 10000 nM.

For `C=CC(=O)Nc1ccc(F)c(Nc2nc(Nc3cnn(C)c3)ncc2N2CCCCC2)c1` [Compound 269, N-(4-fluoro-3-((2-((1-methyl-1H-pyrazol-4-yl)amino)-5-(piperidin-1-yl)pyrimidin-4-yl)amino)phenyl)acrylamide], the IC50 in the assay on A431 cells stood at 5610 nM. The GI50 in assay [1] was above 10000 nM.

As to `C=CC(=O)Nc1ccc(F)c(Nc2nc(Nc3cnn(C)c3)ncc2-c2ccc3c(cnn3C)c2)c1` [Compound 270, N-(4-fluoro-3-((5-(1-methyl-1H-indazol-5-yl)-2-((1-methyl-1H-pyrazol-4-yl)amino)pyrimidin-4-yl)amino)phenyl)acrylamide], in the assay on A431 cells, the half-maximal inhibitory concentration (IC50) was 190 nM. Besides, in assay [1], the GI50 is 985 nM.

Take `C=CC(=O)Nc1ccc(F)c(Nc2nc(N(C)c3cnn(C)c3)ncc2-c2cc(F)cc(OC)c2)c1` [Compound 305, N-(4-fluoro-3-((5-(3-fluoro-5-methoxyphenyl)-2-(methyl(1-methyl-1H-pyrazol-4-yl)amino)pyrimidin-4-yl)amino)phenyl)acrylamide]: the IC50 in the assay with A431 cells was above 10000 nM. The GI50 in assay [2] and in assay [3] was above 10000 nM in each case.
